Values belong to the molecule of their own block, whether it stands above or below them.
What was measured:
[1] = test system: U87 tumor cells (integrins); assay: In vivo optical imaging with 10-labeled cyclo(RGDfK) probe; parameters: species or system Mice
Method: The suitability of compound 10 for in vivo optical imaging was evaluated using an 10-labeled cyclo(Arg-Gly-Asp-D-Phe-Lys) (RGDfK) probe. This probe was specifically designed to target integrins. Integrins are cell surface heterodimeric glycoproteins important in cell adhesion and signal transduction. This receptor class is involved in tumor growth, tumor invasiveness, metastasis, tumor-induced angiogenesis, inflammation, osteoporosis, and rheumatoid arthritis.
Mice were implanted with U87 tumor cells. The animals were injected and imaged while the tumors were still extremely small. This provided a good test of how visible the tumors are over any background signal that the probe detected.
Tumors were excised, weighed, and imaged on a Pearl Imager (FIG. 3).

[2] = Photostability comparison on nitrocellulose membrane; format: physicochemical; conditions: dye-labeled GAR on nitrocellulose; repeated Odyssey scans; normalized to time zero
Method: Test samples were prepared by spotting equimolar amounts of dye (i.e., goat anti-rabbit (GAR) secondary antibodies labeled with the appropriate dye) onto nitrocellulose membrane. The membrane was then scanned repeatedly on an Odyssey Infrared Imager, and the signal intensity was normalized to the control signal at time zero (FIG. 19A-B).

U87GM cells = assay: Plate-based evaluation of cell binding (on-cell Western); conditions: <0.5 μM; in comparison to a specific targeted probe
Method: Compound 10/RGD and 10/EGF were prepared to be used in conjunction with 10 to estimate relative non-specific binding of the dye relative to a labeled targeted agent. The on-cell Western was the format used and imaged on the Odyssey Sa.
In a plate-based evaluation of 10/RGD on U87GM cells, 10 was added to assess level of cell binding (FIG. 27).

[3] = Absorption and emission of the dye; format: physicochemical
Method: Compound 9 (80 mg), 3-(2-carboxyethyl)phenylboronic acid (40 mg), and cesium carbonate (20 mg) were stirred into water (20 mL) under nitrogen at room temperature. Tetrakis(triphenylphosphine)palladium (0) (10 mg) were added to the reaction mixture. The mixture was refluxed for 4 h, and the solvent and volatile compounds then were evaporated under vacuum. The crude product was purified by flash chromatography on silica 60, 200-400 mesh, eluting with a 20/80 acetonitrile/water mixture. The purified compound 56 had λMeOH=680 nm, λPBS=672 nm, ε=160,000.
Fluorescence determinations were made at a fixed antibody concentration of 10 μg/mL in physiological buffer using dye-labeled goat anti-rabbit (GAR) conjugates prepared at LI-COR (FIGS. 13A-B and 14). A dye-labeled lactalbumin conjugate was also tested (FIG. 15).
20's absorbance and emission maximum is at 676 nm in aqueous solution and at 693 nm in methanol.

[4] = In vivo clearance study of carboxylate 10; parameters: species or system Nude mice
Method: Nude mice were used for the clearance study with the carboxylate and for the targeted agent evaluation. A dose of 2 nmol 10 was administered intravenously (IV) via the tail vein of the mouse and serial imaged over the next 48 h with the Pearl Impulse imaging system. Excised organs were evaluated to assess organs with the highest retention.

A431 subcutaneous tumors = assay: In vivo dose testing of 10/EGF; parameters: species or system nude mice; conditions: excised organs 48 h post injection
Method: Testing for optimal dose in nude mice bearing A431 subcutaneous tumors was done. Four doses were tested: 0.5, 1, 2, and 3 nmoles. Two mice were used per treatment dosage. A431 tumor cells were implanted on the right hip and allowed to reach approximately 0.5 cm. FIG. 31 presents dorsal views of all animals under a common LUT.

SMILES: CC1(C)C(/C=C/C(=C/C=C2\N(CCCS(=O)(=O)[O-])c3ccc(S(=O)(=O)[O-])cc3C2(C)C)c2cccc(CCC(=O)NCCCC[C@@H]3NC(=O)[C@@H](Cc4ccccc4)NC(=O)[C@H](CC(=O)[O-])NC(=O)CNC(=O)[C@H](CCCNC(=N)N)NC3=O)c2)=Nc2c1cc(Cl)c[n+]2CCCS(=O)(=O)[O-].[Na+].[Na+].[Na+] [Compound 21, Sodium 2-((2S,5R,8S,11S)-5-benzyl-8-(4-(3-(3-((1E,3Z,5Z)-1-(5-chloro-3,3-dimethyl-7-(3-sulfonatopropyl)-3H-pyrrolo[2,3-b]pyridin-7-ium-2-yl)-5-(3,3-dimethyl-5-sulfonato-1-(3-sulfonatopropyl)indolin-2-ylidene)penta-1,3-dien-3-yl)phenyl)propanamido)butyl)-11-(3-guanidinopropyl)-3,6,9,12,15-pentaoxo-1,4,7,10,13-pentaazacyclopentadecan-2-yl)acetate]
- clearance and background ([1]; 1 nmol): cleared the system without an undue level of background
- time post-injection by which tumors were visible ([1]; 1 nmol intravenously, two tumor-bearing mice): ≤ 5 h
- detectability of tumors ([1]; 1 nmol, extremely small tumors (9 and 15 mg)): easily detectable

- relative fluorescence on repeated scanning (photostability) [2]: unchanged
SMILES: C[Si](C)(CCC[N+](CCCS(=O)(=O)[O-])(CCCS(=O)(=O)[O-])CCCS(=O)(=O)[O-])O[Si]1(O[Si](C)(C)CCC[N+](CCCS(=O)(=O)[O-])(CCCS(=O)(=O)[O-])CCCS(=O)(=O)[O-])n2c3c4ccccc4c2N=C2N=C(N=c4c5ccccc5c(n41)=NC1=NC(=N3)c3ccccc31)c1cccc(OCCCOC(=O)NCCCCCC(=O)ON3C(=O)CCC3=O)c12.[Na+].[Na+].[Na+].[Na+] (centres unmarked) [Compound 700DX]

SMILES: CC1(C)C(/C=C/C(=C/C=C2/N(CCCS(=O)(=O)[O-])c3ccc(S(=O)(=O)[O-])cc3C2(C)C)c2cccc(CCC(=O)O)c2)=Nc2c1cc(Cl)c[n+]2CCCS(=O)(=O)[O-].[Na+].[Na+] [Compound 10]
- level of cell binding (U87GM cells): low levels of cell binding
- Extinction Coefficient ([3]; MeOH): 170,000
- Max. Abs. ([3]; MeOH): 680 nm
- Max. Emis. ([3]; MeOH): 694 nm
- Extinction Coefficient ([3]; PBS): 160,000
- Max. Abs. ([3]; PBS): 672 nm
- Max. Emis. ([3]; PBS): 694 nm
- time of signal spike ([4]; 2 nmol IV): about 1 hour
- retention in the kidneys ([4]; 2 nmol IV, 44 hr period): very little retention in the kidneys, if at all
- route of clearance ([4]; 2 nmol IV, 44 hr period): clears via the liver/gall bladder/intestinal tract
- time by which total signal is dramatically reduced ([4]; 2 nmol IV, whole-image ROI): ≤ 4 h
- retention in excised organs ([4]; 44 hr post injection, liver, heart, kidney, spleen, intestine, muscle, tumor): very little retention of probe
- signal from the tumor cells (A431 subcutaneous tumors): very little signal from the tumor cells
